Values quoted from earlier work as cited in US7713553B2, “Method of manufacture of a liquid pesticide containing copper and a liquid pesticide containing copper” (Genics Inc., priority 2001, dated 2010).

**Q.** Which solubility in water does the source give for [Cu+2].[OH-].[OH-] [copper hydroxide] here?
**A.** almost insoluble
